Data on 11 molecules can be found in ChEMBL document CHEMBL5321277, “Discovery and Mechanism Study of SARS-CoV-2 3C-like Protease Inhibitors with a New Reactive Group” (J Med Chem, 2023).

For assay [1], the target named is T1, Replicase polyprotein 1ab (Severe acute respiratory syndrome coronavirus 2, UniProt P0DTD1). Briefly: Inhibition of N-terminal His6-tagged recombinant full length SARS-CoV-2 3CLpro expressed in Escherichia coli BL21(DE3) using MCA-AVLQSGFR-Lys(Dnp)-Lys-NH2 as fluorogenic substrate preincubated with compound for 10 mins followed by substrate addition by FRET assay.

Assay [2] concerns the target T1, Replicase polyprotein 1ab. Briefly: Inhibition of SARS-CoV-2 PLpro using RLRGG-AMC as fluorogenic substrate preincubated with compound for 30 mins followed by substrate addition by fluorescence based microplate reader assay.
For assay [3], the target named is Chymotrypsin (Homo sapiens, UniProt Q99895+P17538+P40313+Q6GPI1). Briefly: Inhibition of Chymotrypsin (unknown origin) using N-succinyl-AAPF-AMC as fluorogenic substrate preincubated for 10 mins followed by substrate addition and measured for 10 mins by fluorescence based assay. Type of assay: protein assay.
The target in assay [4] is Cathepsin B (Homo sapiens, UniProt P07858). Briefly: Inhibition of Cathepsin B (unknown origin) using Z-RR-AMC as fluorogenic substrate preincubated for 10 mins followed by substrate addition and measured for 10 mins by fluorescence based assay.
For assay [5], the target named is T2, Procathepsin L (Homo sapiens, UniProt P07711). The assay can be described thus: Inhibition of Cathepsin L (unknown origin) using Z-VVR-AMC as fluorogenic substrate preincubated for 10 mins followed by substrate addition and measured for 10 mins by fluorescence based assay.
Target sequence in this assay (P07711 whole entry): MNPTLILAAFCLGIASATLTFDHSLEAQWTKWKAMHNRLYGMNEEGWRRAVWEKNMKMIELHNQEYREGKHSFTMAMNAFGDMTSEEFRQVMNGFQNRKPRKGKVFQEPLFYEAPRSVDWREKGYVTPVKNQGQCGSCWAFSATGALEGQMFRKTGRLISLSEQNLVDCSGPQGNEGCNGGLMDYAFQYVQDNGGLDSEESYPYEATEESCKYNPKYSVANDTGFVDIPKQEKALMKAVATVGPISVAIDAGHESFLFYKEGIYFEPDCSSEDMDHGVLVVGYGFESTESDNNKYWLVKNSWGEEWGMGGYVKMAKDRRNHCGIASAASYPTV
The target of assay [6] is T3, Cathepsin G (Homo sapiens, UniProt P08311).
T3 sequence (P08311 whole entry): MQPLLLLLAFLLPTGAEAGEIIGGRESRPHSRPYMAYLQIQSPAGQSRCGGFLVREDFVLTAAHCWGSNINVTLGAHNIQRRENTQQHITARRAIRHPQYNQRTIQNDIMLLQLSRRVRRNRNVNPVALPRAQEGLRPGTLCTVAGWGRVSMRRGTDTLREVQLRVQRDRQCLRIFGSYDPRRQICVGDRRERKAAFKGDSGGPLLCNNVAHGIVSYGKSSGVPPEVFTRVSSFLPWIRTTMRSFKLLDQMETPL
The assay can be described thus: Inhibition of Cathepsin G (unknown origin) measured for 1 to 2 hrs by fluorescence based assay.

Assay [7] addresses T4, Caspase-6 (Homo sapiens, UniProt P55212).
T4 sequence (P55212 whole entry): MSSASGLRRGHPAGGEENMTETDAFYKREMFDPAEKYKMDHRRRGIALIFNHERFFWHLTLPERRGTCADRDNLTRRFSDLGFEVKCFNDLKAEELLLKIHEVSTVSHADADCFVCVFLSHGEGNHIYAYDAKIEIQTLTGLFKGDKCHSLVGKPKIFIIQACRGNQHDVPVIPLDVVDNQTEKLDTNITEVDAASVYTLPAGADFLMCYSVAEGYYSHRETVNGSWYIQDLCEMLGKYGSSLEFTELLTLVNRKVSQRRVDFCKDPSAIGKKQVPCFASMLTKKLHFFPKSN
The assay can be described thus: Inhibition of Caspase-6 (unknown origin).

Assay [8] deals with T1, Replicase polyprotein 1ab. The assay can be described thus: Inhibition of N-terminal His6-tagged recombinant full length SARS-CoV-2 3CLpro expressed in Escherichia coli BL21(DE3) assessed as inhibition constant using MCA-AVLQSGFR-Lys(Dnp)-Lys-NH2 as fluorogenic substrate incubated for 3 hrs by FRET assay.
In assay [9] the target is Replicase polyprotein 1ab (Severe acute respiratory syndrome coronavirus 2) (UniProt P0DTD1). The assay can be described thus: Inhibition of N-terminal His6-tagged recombinant full length SARS-CoV-2 3CLpro expressed in Escherichia coli BL21(DE3) assessed as Kobs, ratio of Kinact/Ki using MCA-AVLQSGFR-Lys(Dnp)-Lys-NH2 as fluorogenic substrate incubated for 3 hrs by FRET assay.

Assay [10] concerns the target T2, Procathepsin L. The assay can be described thus: Inhibition of Cathepsin L (unknown origin) using Z-VVR-AMC as fluorogenic substrate at 20 uM preincubated for 10 mins followed by substrate addition and measured for 10 mins by fluorescence based assay. The settings on record: time 20.0 min.
Target sequence in this assay (P07711 114-333 limits assumed): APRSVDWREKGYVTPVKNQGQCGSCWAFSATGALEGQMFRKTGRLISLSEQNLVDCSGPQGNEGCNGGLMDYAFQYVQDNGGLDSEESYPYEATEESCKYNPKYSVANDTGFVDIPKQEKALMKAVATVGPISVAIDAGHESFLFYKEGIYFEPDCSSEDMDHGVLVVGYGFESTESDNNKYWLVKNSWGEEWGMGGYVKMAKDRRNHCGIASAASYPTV
The test system of assay [11] is SARS-CoV-2. The assay can be described thus: microbe, parasite or virus in culture. The settings on record: Severe acute respiratory syndrome coronavirus 2, B1.617.2 (Delta), Vero C1008, 24 h.

Usually IC50 stands for the concentration that gives 50% inhibition. By Ki is commonly meant the dissociation constant of the complex between target and ligand, obtained from inhibition or displacement. In the case of `N#CSCC(=O)N1c2ccccc2Sc2ccc(C#N)cc21`, the IC50 was 0.322 µM in assay [1]; more than 100 µM in assay [2]; more than 100 µM in [3]; more than 50 µM in [4]; more than 100 µM in assay [5]; more than 50 µM in assay [6]. In assay [7], the IC50 is more than 50 µM. For the same molecule, the Ki in [8] was 18.1 µM. Also, the Kobs in assay [9] is 1670 M⁻¹ s⁻¹.
The term inhibition denotes the drop in the measured response relative to a control, in per cent. High values mean a response far below the control, low ones a response near the control. Take `N#CSCC(=O)N1c2ccccc2CCc2ccccc21`: the concentration for half-maximal inhibition (IC50) in [1] was 2.21 µM; in assay [2], more than 100 µM; in [3], more than 100 µM; in assay [4] it was more than 50 µM; in assay [6], more than 50 µM; in assay [7] it was more than 50 µM. This molecule also gave an inhibition in assay [10] of 70.3%. Moreover, in [8], the inhibition constant Ki was determined as 43.6 µM. Besides, in [9], the Kobs worked out at 327 M⁻¹ s⁻¹.
As to `COc1ccc2c(c1)N(C(=O)CSC#N)c1ccccc1S2`, in [1], the IC50 came to 2.9 µM.
The term EC50 denotes the midpoint of the concentration-response curve. Consider `N#CSCC(=O)N1c2ccccc2Oc2ccccc21`, for which the IC50 in assay [1] is 3.96 µM. This molecule also had a concentration for a half-maximal effect (EC50) in [11] of 5.38 µM.
Regarding `N#CSCC(=O)N1c2ccccc2CCc2ccc(Cl)cc21`, the IC50 in assay [1] came to 0.478 µM. The Ki in assay [8] turned out to be 24.9 µM. In assay [11], a half-maximal response (EC50) required 2.5 µM.
As to `CC(=O)c1ccc2c(c1)N(C(=O)CSC#N)c1ccccc1S2`, the concentration for half-maximal inhibition (IC50) in assay [1] is 1.06 µM.
Take `N#CSCC(=O)N1c2ccccc2Sc2ccc(C(F)(F)F)cc21`: the IC50 in assay [1] was found to be 4.6 µM. Further, the midpoint of the response in assay [11], the EC50, lay at 3.14 µM.
With `CCSc1ccc2c(c1)N(C(=O)CSC#N)c1ccccc1S2`, the half-maximal inhibitory concentration (IC50) in assay [1] worked out at 2.64 µM.
Still for that read-out and setting: as for `CCC(=O)c1ccc2c(c1)N(C(=O)CSC#N)c1ccccc1S2`, the figure is 3.33 µM; as for `N#CSCC(=O)N1c2ccccc2Sc2ccccc21`, 1.85 µM; as for `N#CSCC(=O)N1c2ccccc2Sc2ccc(Cl)cc21`, 0.524 µM.
